Blank lines part the entries; values can stand above or below the compound they belong to. Where a SMILES comes first, the peptide text is derived from it.
Experiments:
[1] = method code SF, from DOI: 10.1016/j.nucmedbio.2007.12.009, PMID: 18355686; details: pH 7.4
[2] = method code SF-RC, from DOI: 10.1002/jlcr.1076; details: pH 7.4
[3] = method code SF, from DOI: 10.1002/ps.2780350215
[4] = method code SF-EN, from DOI: 10.1016/s0022-2275(20)42614-8, PMID: 2280184; details: pH 1.0
[5] = method code SF-RC, from DOI: 10.1016/j.nucmedbio.2016.01.003, PMID: 27067043; details: pH 7.4
[6] = method code SF-AS, from DOI: 10.1016/s0022-5347(24)07568-2, PMID: 4149453; details: pH 7.5
[7] = method code RP-HPLC, from DOI: 10.1021/jm00011a007, PMID: 7540207
[8] = method code SF-RC, from DOI: 10.1016/0361-9230(85)90153-4, PMID: 2413968
[9] = method code SF-RC, from DOI: 10.1016/j.nucmedbio.2005.06.001, PMID: 16253804; details: pH 7.4
[10] = method code SF-AS, from PMID: 1586384
[11] = method code SF-AS, from DOI: 10.1016/s0022-3565(25)38749-5, PMID: 8182532; details: pH 7.4
[12] = method code SF-RC, from DOI: 10.1016/j.nucmedbio.2016.05.003, PMID: 27236283; details: pH 7.4
[13] = method code SF-HPLC, from DOI: 10.1016/0168-3659(88)90058-2; details: pH 7.4
[14] = not given; remark: listed apart in the source
[15] = method code SF-HPLC, from DOI: 10.1016/j.bmc.2009.01.040, PMID: 19208447; details: pH 7.0
[16] = method code SF-HPLC, from DOI: 10.1002/jps.2600800905, PMID: 1800703
[17] = method code SF-HPLC, from DOI: 10.1016/0378-5173(89)90313-x; details: pH 7.4
[18] = method code SF-AS, from DOI: 10.1016/s0014-827x(98)00024-x, PMID: 9679281
[19] = not given; remark: listed apart in the source
[20] = not given; remark: listed apart in the source
[21] = method code SF-RC, from DOI: 10.1016/j.nucmedbio.2003.12.003, PMID: 15093819; details: pH 7.0
[22] = method code RP-TLC, from DOI: 10.1016/s0021-9673(03)00617-4, PMID: 12830921
[23] = method code SF-AS, from DOI: 10.1016/j.bmc.2007.10.035, PMID: 18029186; details: pH 7.4
[24] = method code SF-AS, from DOI: 10.1248/bpb1978.7.120, PMID: 6427444
[25] = not given; remark: listed apart in the source

SMILES: CC(=O)N(Cc1ccccc1OCCF)c1cnccc1Oc1ccccc1
logD [1]: 2.99

SMILES: COC(=O)CN1CCN(C(COCc2cc(C(F)(F)F)cc(C(F)(F)F)c2)c2ccccc2)CC1 (configuration not stated)
logP: 3.11

SMILES: CCCCn1c(C)cc(=O)c(C(=O)Nc2c(CC)cccc2CC)c1C
logP [3]: 2.52

SMILES: CCc1cccc(CC)c1NC(=O)c1c(C)n(CCc2ccccc2)c(C)c(Br)c1=O
logP [3]: 3.63

SMILES: CCC(C)N(C)C(=O)c1cc2ccccc2c(-c2ccccc2Cl)n1 (configuration not stated)
logD [1]: 4

SMILES: CCOC(=O)CC[C@H](NC(=O)c1ccc(N(C)Cc2cnc3nc(N)nc(N)c3n2)cc1)C(=O)OCC
logD [6]: 0.98

SMILES: CCCCCN=c1ccn(Cc2ccc3ccccc3c2)c2cc(Cl)ccc12
logP [7]: 4.16

SMILES: NC(=O)CC[C@@H]1NC(=O)[C@H](Cc2ccccc2)NC(=O)[C@H](Cc2ccc(O)cc2)NC(=O)[C@@H](N)CSSC[C@@H](C(=O)N2CCC[C@H]2C(=O)N[C@@H](CCCN=C(N)N)C(=O)NCC(N)=O)NC(=O)[C@H](CC(N)=O)NC1=O
logP [8]: -2.15

SMILES: CNc1ccc(C=Cc2ccc(OCCOCCOCCOCCOCCF)cc2)cc1
logD [9]: 2.28

SMILES: CC(C)CCC(=O)CC1c2ccccc2C(=O)N1c1ccc2ccc(Cl)nc2n1 (configuration not stated)
logD [11]: 4.8

SMILES: CNc1ccc(C=Cc2ccc(OCCOCCOCCOCCF)cc2)cc1
logD [9]: 2.05

SMILES: C#CC1(OC(=O)OCCCCC(O)CO)CCC2C3CCC4=CC(=O)CCC4C3CCC21CC (configuration not stated)
logD [13]: 3.75

SMILES: COC(=O)CC[C@H](NC(=O)c1cc(Cl)c(N(C)Cc2cnc3nc(N)nc(N)c3n2)c(Cl)c1)C(=O)OC
logD [6]: 1.69

SMILES: CC(C(=O)OCC(O)C(O)C(O)C(O)CO)c1cccc(C(=O)c2ccccc2)c1 (configuration not stated)
logD [15]: 0.78

SMILES: CN1C=CCC(C(=O)NC2CCC(OC(=O)CCCc3ccc(N(CCCl)CCCl)cc3)CC2)=C1 (configuration not stated)
logD [17]: 2.85

SMILES: C#CC1(OC(=O)OCC(O)CO)CCC2C3CCC4=CC(=O)CCC4C3CCC21CC (configuration not stated)
logD [13]: 3.22

SMILES: Cc1[nH]c2ccccc2c1Cc1nnc(Nc2cccc3ccccc23)s1
logP [18]: 3.78

SMILES: COc1cc2c(Nc3ccc(Cl)cc3F)ncnc2cc1OCCCN1CCOCC1
logP [19]: 3.6

SMILES: CC(C(=O)OCC(O)C(O)C(O)C(O)C=O)c1cccc(C(=O)c2ccccc2)c1 (configuration not stated)
logD [15]: 1.26

SMILES: O=C(NCCc1ccc(S(=O)(=O)NC2CCCCC2)cc1)c1cc(Cl)ccc1OCCF
logD [21]: 2.09

SMILES: CCCCCN=c1ccn(Cc2cccc3ccccc23)c2cc(Cl)ccc12
logP [7]: 4.01

SMILES: CC(C)C[C@H](NC(=O)[C@@H]1CCCN1C(=O)[C@@H](N)Cc1ccc(O)cc1)C(=O)NCC(N)=O (H-YPLG-NH2)
logP [8]: 0.06

SMILES: CN1CCN(C(COCc2cc(C(F)(F)F)cc(C(F)(F)F)c2)c2ccccc2)CC1 (configuration not stated)
logP: 3.2

SMILES: CC(=O)OCC1OC(OCCN(C)C(=O)n2ccnc2[N+](=O)[O-])C(OC(C)=O)C(OC(C)=O)C1OC(C)=O (configuration not stated)
logD [23]: -0.98

SMILES: CO[C@@]12[C@H](COC(N)=O)C3=C(C(=O)C(C)=C(N)C3=O)N1C[C@H]1[C@@H]2N1Cc1ccccc1 (some centres not stated)
logP [24]: 1.59

SMILES: C=CC(=O)NCCCCC(NC(=O)OCc1ccccc1)C(=O)N1CCN(c2ccccc2Cl)CC1 (configuration not stated)
logD [5]: 3

SMILES: CN1C=CCC(C(=O)NCCOC(=O)CCCc2ccc(N(CCCl)CCCl)cc2)=C1
logD [17]: 2.16

SMILES: CCCCCCCCCCOc1ccc(C(=O)Nc2cc(C(=O)NCCCC)ccc2SC)cc1
logD [11]: 5.2

SMILES: CO[C@@]12[C@H](COC(N)=O)C3=C(C(=O)C(C)=C(N)C3=O)N1C[C@H]1[C@@H]2N1C(=O)c1ccccc1
logP [24]: 1.89

SMILES: O=C(NCCc1ccc(S(=O)(=O)NC2CCCCC2)cc1)c1cc(I)ccc1OCCF
logD [21]: 2.15

SMILES: CCN(CC)C(=O)C(C#N)=Cc1cc(OC(=O)CC(=O)C(C)(C)C)c(OC(=O)CC(=O)C(C)(C)C)c([N+](=O)[O-])c1
logP [25]: 3.99

SMILES: CCN(CC)C(=O)C(C#N)=Cc1cc(OCOC(=O)C(C)(C)C)c(OCOC(=O)C(C)(C)C)c([N+](=O)[O-])c1
logP [25]: 3.86

SMILES: CC(=O)NC1C(OCCN(C)C(=O)Cn2ccnc2[N+](=O)[O-])OC(COC(C)=O)C(OC(C)=O)C1OC(C)=O (configuration not stated)
logD [23]: -1.29

SMILES: S=c1[nH]nc(Cn2ccc3ccccc32)n1-c1cccc2ccccc12
logP [18]: 3.12

SMILES: COc1cc2c(Nc3ccc(Cl)cc3F)ncnc2cc1OCCCN1CCN(C)CC1
logP [19]: 3.3

SMILES: CCC(C)(C)C(=O)O[C@H]1C[C@@H](C)C=C2C=C[C@H](C)[C@H](CC[C@@H](O)C[C@@H](O)CC(=O)O)[C@H]21 (relative stereo)
logD ([16]; pH 2.0): 4.47

Results, then the compound that gave them:

logD [2]: 1.8
SMILES: COc1ccc2c(c1)C1(C)CCC3c4cc(I)c(O)cc4CCC3C1C2 (configuration not stated)

logD [4]: 2.8
SMILES: C[C@H](CCC(=O)O)[C@H]1CC[C@H]2[C@@H]3C[C@H](O)[C@@H]4C[C@H](O)CC[C@]4(C)[C@H]3C[C@H](O)[C@]12C

logD [5]: 2.67
SMILES: C=CC(=O)Nc1ccc(S(=O)(=O)N2CCN(C(=O)C34CC5CC(CC(C5)C3)C4)CC2)cc1

logD [2]: 2.5
SMILES: COc1ccc2c(c1)C1(C)CCC3c4ccc(O)c(I)c4CCC3C1C2 (configuration not stated)

logP [10]: 0.26
SMILES: CC(=O)OC(C)OC(=O)c1cn2c3c(c(N4CCN(C)CC4)c(F)cc3c1=O)OCC2C (configuration not stated)

logD [12]: 2.1
SMILES: COc1cc(OCCF)cc(OC)c1NC(=O)c1ccc(Oc2cc3c(cc2C)CCC3(C)C)o1

logP [10]: 0.02
SMILES: CC(=O)OCOC(=O)c1cn2c3c(c(N4CCN(C)CC4)c(F)cc3c1=O)OCC2C (configuration not stated)

logP [14]: 4.66
SMILES: CC1CC2C3CCC4=CC(=O)CCC4C3CCC2(C)C1C(=O)CF (configuration not stated)

logD ([16]; pH 7.0): 3.85
SMILES: CC[C@H](C)C(=O)O[C@H]1CCC=C2C=C[C@H](C)[C@H](CC[C@@H]3C[C@@H](O)CC(=O)O3)[C@H]21

logD [4]: 1.9
SMILES: CC(CCC(=O)NCC(=O)O)C1CCC2C3C(O)CC4CC(O)CCC4(C)C3CC(C)(O)C12 (configuration not stated)

logP [20]: 4.34
SMILES: CC(=O)[C@@]1(C)CC[C@H]2[C@@H]3CCC4=CC(=O)CCC4=C3CC[C@@]21C

logD [12]: 1.51
SMILES: COc1cc(NCCCF)cc(OC)c1NC(=O)c1ccc(Oc2cc3c(cc2C)CCC3(C)C)o1

logP [22]: 3.89
SMILES: CCC12C=C(C(=O)OCCCO)n3c4c(c5ccccc53)CCN(CCC1)C42 (configuration not stated)

logP [22]: 3.62
SMILES: CCC12C=C(C(=O)OCCO)n3c4c(c5ccccc53)CCN(CCC1)C42 (configuration not stated)

logP [20]: 4.69
SMILES: CC#CC1(O)CC[C@H]2[C@@H]3CCC4=CC(=O)CCC4=C3C(c3ccc(N(C)C)cc3)C[C@@]21C (some centres not stated)

logP [14]: 4.02
SMILES: CC1CC2C3CCC4=CC(=O)CCC4C3CCC2(C)C1C(=O)CO (configuration not stated)

Source: the SangsterLogP compilation
